Results: patent publication US20060167226A1, “Mutations of voltage-gated ion channnels that allow them to express a voltage-independent phenotype and an improved method to use the same” (Cardiome Pharma Corp., priority 2002, published 2006)

Biological target: T1, Kv1.5m channels (Homo sapiens, UniProt P22460, P513D/R400Q/R403Q/R409Q)
T1 construct: The coding region of the human gene for Kv1.5 was subcloned into pYC2 (Invitrogen) as an approximately 2 kb HindIII-NotI fragment; expressed in transfected cells; host or cells: Saccharomyces cerevisiae trk1 trk2 strain WΔ3, plasmid pYC2 (GAL1 promoter) or a PGK promoter vector
T1 sequence (P22460 whole entry R400Q/R403Q/R409Q/P513D, the tested form may be a part): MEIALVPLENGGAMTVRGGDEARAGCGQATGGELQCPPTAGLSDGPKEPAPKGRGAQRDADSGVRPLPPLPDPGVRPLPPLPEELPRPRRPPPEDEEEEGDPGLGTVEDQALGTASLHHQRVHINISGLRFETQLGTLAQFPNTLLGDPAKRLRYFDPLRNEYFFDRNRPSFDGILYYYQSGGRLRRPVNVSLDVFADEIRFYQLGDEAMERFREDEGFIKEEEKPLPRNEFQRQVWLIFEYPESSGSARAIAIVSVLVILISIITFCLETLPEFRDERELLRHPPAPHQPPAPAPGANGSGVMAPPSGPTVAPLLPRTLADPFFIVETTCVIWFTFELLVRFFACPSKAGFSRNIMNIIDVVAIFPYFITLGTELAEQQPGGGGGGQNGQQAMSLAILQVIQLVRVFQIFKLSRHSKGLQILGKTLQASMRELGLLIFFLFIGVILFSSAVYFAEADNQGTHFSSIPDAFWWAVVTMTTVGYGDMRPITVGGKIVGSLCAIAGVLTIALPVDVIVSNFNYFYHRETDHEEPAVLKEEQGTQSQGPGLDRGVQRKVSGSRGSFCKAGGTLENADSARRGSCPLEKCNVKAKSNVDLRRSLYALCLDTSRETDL
Test: Liquid culture growth assay of trk1 trk2 yeast (WΔ3) expressing Kv1.5m in low potassium media
Assay type: cell-based
Details: for OD600 (Batch A) / OD600 (Batch B): QPD WΔ3 transformants, liquid culture; for Block of growth of the trk1 trk2 strain expressing Kv1.5m on low potassium: low potassium media
Description: Expression of the cloned inserts is under the control of either the constitutively active PGK promoter or the inducible GAL1 promoter. The latter requires growth in/on media containing galactose as sole carbon source. The screening method involves adding the compound to be screened to the growth media of trk1 trk2 yeast expressing the modified potassium channel and determining whether the yeast's growth is inhibited. The tested compound may be incorporated in liquid or solid growth media or added ectopically to solid growth media.
Our yeast strain, when expressing the mutant Kv1.5 channel, is capable of consistent growth on as little as 0.5 mM potassium. Very few pseudorevertants are capable of growth at this potassium concentration; the vast majority of liquid cultures of the parent strain show absolutely no growth even after more than 24 hours culture. When expressing the mutant Kv1.5 channel, growth is robust and can be blocked by known Kv1.5 channel blockers.
Detailed Description of the Methods Required for a Liquid Culture Media Assay of Kv1.5:
Low salt media was made according to Wickerham, L. J. (1951) (Taxonomy of Yeasts. United States Department of Agriculture Technical Bulletin No. 1029), except that the final potassium phosphate concentration was 0.5 mM.
1. Streak out WΔ3 and Kv1.5m transformed WΔ3 (“Kv1.5m”) culture from frozen stock onto YPD+100 mM K+ and YNB+100 mM K+, ura-agar media plates, respectively, for fresh colonies.
2. The day before doing the drug assay, use the fresh colonies to grow overnight cultures of WΔ3 in liquid YPD+100 mM K+ media, and grow “Kv1.5 m” in liquid YNB+100 mM K+, ura-media.
3. Collect the overnight yeast cells and wash them in sterile distilled water. Resuspend WΔ3 cells in the same volume of LS+100 mM K++ uracil media, and resuspend “Kv1.5 m” cells in the same volume of LS+0.5 mM K+, ura-media. These are the seed cultures for the drug assay.
4. In Falcon 2059 tubes, prepare various concentrations of drugs in LS+0.5 mM K+, ura-media or LS+100 mM K++ uracil media, and also set up solvent controls for each drug concentrations used. Here is an example:
Drug X stock solution (10 mM) is dissoved in 0.5% Tween-20. Final concentrations that we test are 1 mM, 0.1 mM, and 0.01 mM.
Then 250 micro liter of the seed culture of “Kv1.5m” from step 3 is inoculated into each tube.
5. Measure the starting OD600 by taking out 0.1 ml of the sample from each tube and diluting […] for measuring. Grow cultures at […] shaker at 300 rpm.
6. Get 0.1 ml of samples from each tube and measure their OD600 at 2 hr, 4 hr, 6 hr, 8 hr, and 24 hr.

## Nc1ccncc1 [Compound 4-AP, 4-aminopyridine]
1 mM 4-AP, both batches, read-out: reduction at OD600 (inhibition of yeast growth)
  inhibition at 1000 µM: 50%
LS + 0.5 mM K+ + 0.1 mM 4-AP
  OD600 (Batch A): 2.55
  OD600 (Batch B): 2.5
LS + 0.5 mM K+ + 1 mM 4-AP
  OD600 (Batch A): 1.11
  OD600 (Batch B): 1.11
  Block of growth of the trk1 trk2 strain expressing Kv1.5m on low potassium: can block the Kv1.5m channels
Listed as 4-aminopyridine
  Block of growth of the trk1 trk2 strain expressing Kv1.5m on low potassium: could be blocked
